This note sets out measurements from ChEMBL document CHEMBL1201862, “PubChem BioAssay data set” (2004).

Some test systems named below: MOLT-4; LOX IMVI; HCT-15; SNB-75; M14; OVCAR-3; OVCAR-5; HOP-92; SNB-19; K562; U-251; NCI-H460; Malme-3M; RPMI-8226; RXF 393; SN12C; HOP-62; SK-OV-3; HCT-116; SK-MEL-2.
Holding throughout (experiment): NCI tumour cell line growth inhibition, 48 h

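48-hour exposure; five concentrations; linearly interpolated endpoints. GI50 marks 50% less growth.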 The source made the active and inactive calls. Rule as the data show it: active = GI50 up to about 1.1 µM and inactive = higher.

With `O=C1CC(C(OCc2ccccc2)C(OCc2ccccc2)C(OCc2ccccc2)C(COCc2ccccc2)OCc2ccccc2)CC(=O)N1` (configuration not stated), the GI50 was 59 µM (inactive) in the test on MOLT-4; > 100 µM (inactive) with LOX IMVI; over 100 µM with HCT-15; > 100 µM (inactive) with SNB-75; > 100 µM (inactive) with M14; > 100 µM (inactive) with OVCAR-3. The GI50 was > 100 µM (inactive) in the test on OVCAR-5; 18 µM (inactive) in the test on HOP-92; > 100 µM (inactive) in the test with SNB-19; > 100 µM (inactive) in the test with K562; 79.8 µM (inactive) in the test with U-251; > 100 µM (inactive) in the test with NCI-H460. Besides, the GI50 in the test on Malme-3M is > 100 µM (inactive); in the test with RPMI-8226 it was > 100 µM (inactive); with RXF 393 it was 6.52 µM (inactive); in the test on SN12C it was > 100 µM (inactive); in the test on HOP-62, > 100 µM (inactive).

`NC1(c2cc3ccccc3s2)CCCCCC1`: the GI50 in the test with MOLT-4 is 14.1 µM (inactive); with LOX IMVI, 17.9 µM (inactive); in the test on HCT-15 it was 17.1 µM; in the test with SNB-75, 11.1 µM (inactive); in the test with M14 it was 18.8 µM (inactive); with OVCAR-3, 15.7 µM (inactive). Also, the GI50 in the test with OVCAR-5 is 15 µM (inactive); with HOP-92 it was 14 µM (inactive); in the test with SNB-19, 18.2 µM (inactive); in the test with K562, 10.1 µM (inactive); with U-251, 15.7 µM (inactive); in the test with NCI-H460, 15 µM (inactive). Also, the GI50 in the test on RXF 393 is 12.7 µM (inactive); in the test on SK-OV-3, 17.1 µM (inactive); with HCT-116 it was 16.1 µM (inactive); in the test with SN12C it was 16.8 µM (inactive); in the test with HOP-62, 14.6 µM (inactive); in the test with SK-MEL-2 it was 10.4 µM (inactive).

Take `CC(C)c1nc(Cl)c(Cl)c(Cl)n1`: the GI50 in the test on MOLT-4 was 1.8 µM (inactive); in the test with LOX IMVI it was 0.246 µM (active); with HCT-15, 0.695 µM; in the test on SNB-75 it was 11.2 µM (inactive); with M14, 5.51 µM (inactive); in the test with OVCAR-3, 1.99 µM (inactive). The GI50 in the test with OVCAR-5 is 5.77 µM (inactive); with HOP-92, 3.24 µM (inactive); with SNB-19 it was 18.6 µM (inactive); with K562, 0.286 µM (active); with U-251 it was 3.42 µM (inactive); in the test on NCI-H460, 12.6 µM (inactive). Also, the GI50 was 0.608 µM (active) in the test on Malme-3M; 1.31 µM (inactive) with RPMI-8226; 2.05 µM (inactive) in the test on RXF 393; 17.7 µM (inactive) with SK-OV-3; 1.33 µM (inactive) with HCT-116; 4.24 µM (inactive) in the test with SN12C. The GI50 with HOP-62 is 12.6 µM (inactive).

For the compound `O=C(O)C(C(=O)C(=O)C(C(=O)O)c1ccc(Cl)cc1)c1ccc(Cl)cc1` (configuration not stated), the GI50 is 1.72 µM (inactive) in the test with MOLT-4; 2.56 µM (inactive) in the test with LOX IMVI; 3.32 µM (inactive) in the test on SNB-75; 4.45 µM (inactive) in the test on M14; 2.9 µM (inactive) in the test on OVCAR-3; 4.25 µM (inactive) in the test on OVCAR-5. The GI50 with HOP-92 is 3.11 µM (inactive); with SNB-19 it was 3.68 µM (inactive); in the test on K562, 2.57 µM (inactive); with U-251 it was 3.22 µM (inactive); in the test on NCI-H460 it was 3.46 µM (inactive); with Malme-3M, 2.5 µM (inactive). Besides, the GI50 in the test with RPMI-8226 is 2.13 µM (inactive); in the test on RXF 393, 3.92 µM (inactive); with SK-OV-3, 5.89 µM (inactive); in the test with HCT-116 it was 3.1 µM (inactive); with SN12C it was 2.94 µM (inactive); in the test with HOP-62, 5.22 µM (inactive).

With `CC(C)(C)OC(=O)NC12C3C4C1C1C2C3C41NC(=O)OC(C)(C)C` (configuration not stated), the GI50 in the test on MOLT-4 is 15.2 µM (inactive); with LOX IMVI, 36.1 µM (inactive); with HCT-15, 73.3 µM; in the test with M14 it was 50 µM (inactive); in the test on OVCAR-3, 79.3 µM (inactive); in the test with OVCAR-5 it was > 100 µM (inactive). In addition, the GI50 in the test on HOP-92 is 68.1 µM (inactive); in the test with SNB-19, > 100 µM (inactive); in the test on K562, 50.4 µM (inactive); in the test with U-251 it was 37.8 µM (inactive); in the test on NCI-H460 it was 35.6 µM (inactive); with RXF 393, 28.5 µM (inactive). Further, the GI50 in the test on HCT-116 is 47.3 µM (inactive); in the test with SN12C, 88.5 µM (inactive); in the test with HOP-62, 50.6 µM (inactive); in the test on SK-MEL-2 it was > 100 µM (inactive).

As for `C[Si](C)(C)CN1C(=O)c2ccccc2C1(O)c1ccccc1` (configuration not stated), the GI50 is 24.2 µM (inactive) with MOLT-4; 49.4 µM (inactive) with LOX IMVI; over 68.4 µM in the test with HCT-15; 84.7 µM (inactive) in the test on SNB-75; > 100 µM (inactive) with M14; > 86.3 µM (inactive) with OVCAR-3. In addition, the GI50 is > 100 µM (inactive) in the test with OVCAR-5; 44.6 µM (inactive) with HOP-92; > 100 µM (inactive) with SNB-19; 40.1 µM (inactive) in the test with K562; > 100 µM (inactive) with U-251; 65.6 µM (inactive) in the test with NCI-H460. The GI50 with Malme-3M is > 100 µM (inactive); with RXF 393, 75.2 µM (inactive); in the test with HCT-116, 48 µM (inactive); in the test with SN12C, > 89.3 µM (inactive); in the test with HOP-62, > 100 µM (inactive); with SK-MEL-2, 97.1 µM (inactive).

As for `O=C1C(=C2SC(c3ccccc3)(c3ccccc3)c3ccccc32)C(=O)c2ccccc21`, the GI50 is > 100 µM (inactive) in the test on MOLT-4; > 100 µM (inactive) in the test on LOX IMVI; over 100 µM in the test with HCT-15; > 100 µM (inactive) in the test with SNB-75; > 100 µM (inactive) with M14; > 100 µM (inactive) in the test on OVCAR-3. Besides, the GI50 with OVCAR-5, with HOP-92, with SNB-19, with K562, in the test with U-251 and with NCI-H460 was > 100 µM (inactive) throughout. Besides, the GI50 with Malme-3M, with RPMI-8226, in the test with RXF 393, in the test with SK-OV-3, in the test with HCT-116 and in the test on SN12C was > 100 µM (inactive) in each case. The GI50 with HOP-62 is > 100 µM (inactive).

In the case of `CC(=O)c1ccc(NC(=O)COC(=O)c2cccc3c(=O)c4ccccc4[nH]c23)cc1`, the GI50 in the test on MOLT-4 was > 100 µM (inactive); in the test with LOX IMVI it was 13.4 µM (inactive); in the test on SNB-75, 10.1 µM (inactive); in the test with M14, 31.4 µM (inactive); in the test on OVCAR-3, 27.2 µM (inactive); in the test on HOP-92 it was 25.9 µM (inactive). For the same compound, the GI50 in the test with SNB-19 is 22.5 µM (inactive); in the test on K562, > 100 µM (inactive); with U-251, 15.5 µM (inactive); in the test with NCI-H460 it was 22.6 µM (inactive); in the test on Malme-3M, 42.5 µM (inactive); in the test with RXF 393, 18 µM (inactive). Also, the GI50 was 67.8 µM (inactive) with SK-OV-3, 12.2 µM (inactive) with HCT-116, 16.1 µM (inactive) in the test on SN12C and 31.5 µM (inactive) in the test on HOP-62.

As for `O=C1/C(=N\NC(=S)Nc2ccc(Cl)cc2)c2cc([N+](=O)[O-])ccc2N1CN1CCOCC1`, the GI50 in the test on MOLT-4 is 0.655 µM (active); in the test with LOX IMVI it was 10.1 µM (inactive); in the test on HCT-15 it was 3.36 µM; with SNB-75 it was 12.8 µM (inactive); in the test with M14, 10.1 µM (inactive); with OVCAR-3, 3.99 µM (inactive). Also, the GI50 in the test with HOP-92 is 8.47 µM (inactive); in the test with SNB-19, 7.89 µM (inactive); in the test on U-251 it was 7.18 µM (inactive); with NCI-H460, 7.78 µM (inactive); with Malme-3M, 6.17 µM (inactive); in the test on RXF 393, 7.19 µM (inactive). Moreover, the GI50 in the test on SK-OV-3 was 12.6 µM (inactive); in the test on HCT-116, 4.12 µM (inactive); with SN12C, 4.12 µM (inactive); with HOP-62, < 0.01 µM (active); in the test with SK-MEL-2, 13.2 µM (inactive).

Consider `C=C1C(=O)c2cc3c(cc2C(c2cc(OC)c(OC)c(OC)c2)[C@@H]1C(=O)O)OCO3` (some centres not stated), for which the GI50 with MOLT-4 was 37.9 µM (inactive); in the test on LOX IMVI, 43.6 µM (inactive); with HCT-15, 38 µM; in the test on SNB-75, 20.5 µM (inactive); with M14, 28.1 µM (inactive); with OVCAR-3, 23.2 µM (inactive). For the same compound, the GI50 in the test with HOP-92 was 15.5 µM (inactive); in the test with K562, 32.1 µM (inactive); with U-251, 49.9 µM (inactive); in the test on NCI-H460, 37.1 µM (inactive); in the test with Malme-3M it was 50.6 µM (inactive); in the test on RPMI-8226, 39.3 µM (inactive). Further, the GI50 in the test on RXF 393 is 43.9 µM (inactive); in the test on SK-OV-3, 42.6 µM (inactive); in the test on HCT-116 it was 48.4 µM (inactive); in the test on SN12C, 43.1 µM (inactive).

In the case of `Cc1ccc2[nH]c(Sc3c([N+](=O)[O-])ncn3C)nc2c1`, the GI50 was 13.9 µM (inactive) with MOLT-4; 34.3 µM (inactive) in the test on LOX IMVI; 13.8 µM in the test on HCT-15; 25.3 µM (inactive) in the test on SNB-75; 17.6 µM (inactive) with M14; 17.5 µM (inactive) with OVCAR-3. Moreover, the GI50 was 46.8 µM (inactive) in the test on OVCAR-5; 16.1 µM (inactive) in the test with HOP-92; > 100 µM (inactive) in the test on SNB-19; 22.9 µM (inactive) in the test on U-251; 35.2 µM (inactive) in the test on NCI-H460; 15.8 µM (inactive) in the test with Malme-3M. The GI50 with RPMI-8226 is 25.1 µM (inactive); in the test with RXF 393, 16.1 µM (inactive); with SK-OV-3, 30 µM (inactive); in the test on HCT-116, 21.1 µM (inactive); with SN12C, 18 µM (inactive); in the test with HOP-62, > 100 µM (inactive).
